How the values were obtained:
Cavia porcellus = assay: Tested in vivo for dose required to inhibit PAF-induced bronchoconstriction in guinea pig; type: functional
Rattus norvegicus [1] = assay: Tested in vivo for dose required to inhibit PAF-induced hypotension in rat
Oryctolagus cuniculus = species: Oryctolagus cuniculus; assay: Concentration required to reduce 50% of maximum platelet aggregation caused by PAF in platelet rich plasma from rabbit in vitro; type: functional
Rattus norvegicus [2] = assay: Tested in vivo for dose required to inhibit PAF-induced hypotension in rat; remark: listed apart in the source

SMILES	ED50 (Cavia porcellus)	ED50 (Rattus norvegicus [1])	EC50 (Oryctolagus cuniculus)	ED50 (Rattus norvegicus [2])
C=C(COC(=O)CCCCCC[n+]1ccsc1)COC(=O)NCCCCCCCCCCCCCCCCCC.[Br-]	0.1 mg/kg	0.5 mg/kg	0.25 µM	
C=C(COC(=O)CCCCC[n+]1ccccc1)COC(=O)NCCCCCCCCCCCCCCCCCC.[Br-]	0.2 mg/kg		0.5 µM	0.5 mg/kg

From ChEMBL document CHEMBL1124131, “Derivatives of 2-methylenepropane-1,3-diol as new antagonists of platelet activating factor” (J Med Chem, 1988)
